Non-standard residues stand in square brackets, D forms with d. Residues, ends and D or L forms follow the SMILES beside them. ξ: configuration not given here. NMeF = CN[C@@H](Cc1ccccc1)C(=O)O; NMeV = CN[C@H](C(=O)O)C(C)C; ξAbu = CCC(N)C(=O)O
Columns and labels:
[1] = biological target: T1, BIR3 domain of XIAP (recombinant XIAP-BIR3, residues 238-358) (Homo sapiens, UniProt P98170); assay: Fluorescence-based competition assay of tetrapeptide libraries (Example 1); format: binding, mammalian
T1 construct: Recombinant XIAP-BIR3 (residues 238-358); GST (N, cleaved yes); made in house; host or cells: E. coli
T1 sequence (P98170 238-358): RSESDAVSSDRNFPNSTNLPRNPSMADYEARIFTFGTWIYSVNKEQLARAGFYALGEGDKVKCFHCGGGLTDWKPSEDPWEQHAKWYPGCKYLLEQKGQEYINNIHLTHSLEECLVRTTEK
Excerpt: Expression and Purification of BIR3. […] The soluble fraction of the GST-BIR3 in the E. coli lysate was purified over a glutathione sepharose column, and further purified by anion exchange chromatography (Mono-Q, Amersham Biosciences). The fusion protein was cleaved by thrombin, and the GST portion was removed by the glutathione sepharose column. The BIR3 protein was further purified over a gel filtration column (Superdex 30, Amersham Biosciences).
Fluorescence Experiments. Luminescence spectra were recorded using a Photon Technologies, Inc. fluorometer with a Xe arc lamp and a PMT detector. […] The buffer used in all of the fluorescence experiments was 50 mM potassium phosphate, 100 mM NaCl, 2 mM 1,4-dithio-DL-threitol (DTT), pH 7.
Assay of Tetrapeptide Libraries. The samples were prepared in a 96 well plate lined with glass tubes, to prevent adsorption of the dye to plastic. The plate was stored on ice in the dark between measurements. […] 390 μL of this stock solution were added to 50 wells of the 96 well plate. 50 μL of the test tetrapeptide solutions were added and mixed immediately prior to taking the emission spectra. The final solutions were 5 μM in both badan and BIR3, and approximately 20-30 μM in the tetrapeptide solutions. […] 50 μL of water was added to these wells, again as controls, to determine the intensity of the unbound dye.
The binding of various tetrapeptide mimics to the BIR3 domain of XIAP was determined using a fluorescence-based competition assay. The assay is based on an environment-sensitive fluorogenic dye molecule, badan. Badan is a dye whose sensitivity to environmental changes has previously been used to probe protein binding interactions. […] As the dye is displaced from the binding pocket by the test molecule, the emission shifts back towards the aquated spectrum.

BIR3 domain of XIAP = biological target: T2, BIR3 domain of XIAP (Homo sapiens, UniProt P98170); assay: Fluorescence displacement assay: AVPC-badan displaced from BIR3 by test tetrapeptide (typical assay, Tables 1 and 2); format: binding, mammalian; conditions: for Intensity (470 nm): emission intensity of AVPC-badan with BIR3 and test tetrapeptide, excitation 387 nm, lower = more dye displaced; for Fraction free: fraction of AVPC-badan free (displaced from BIR3), from intensity at 470 nm; for K: binding (equilibrium) constant for displacement of AVP-dye, position-4 library, 5 μM dye and protein, larger = greater affinity; for Krelative: relative equilibrium constant for displacement of AVP-dye, larger = greater affinity for BIR3
T2 construct: Recombinant XIAP-BIR3 (residues 238-358); GST (N, cleaved yes); made in house; host or cells: E. coli
T2 sequence (P98170 238-358): as above
Excerpt: The ability to quickly assay small molecules for their effectiveness in disrupting protein-protein interactions is critical to the development of viable drug candidates. One aspect of the present invention comprises an assay to test the binding affinity of a library of tetrapeptide molecules for the BIR3 domain of an inhibitor of apoptosis protein (LAP), particularly the mammalian XIAP. The assay is based on a detectable label, preferably a fluorogenic dye molecule. In preferred embodiments, the fluorophore is attached to a tripeptide, AVP, whose sequence matches the N-terminal three residues of Smac. The general structure of this molecule, therefore, is AVP[X], wherein X is the fluorophore. The molecule is referred to herein as an “AVP-dye”. The AVP-dye packs into the groove of the BIR3, causing a large shift in emission maximum and intensity when the environment of the dye changes from water to the hydrophobic pocket of the protein. If a molecule (e.g. the native Smac protein or a tetrapeptide mimic) displaces the dye, then emission will shift back to the spectrum observed in water. Since the emission intensity is related to the binding of the tetrapeptide, the intensity can be used to estimate the equilibrium constant, K, for displacement of the AVP-dye by the tetrapeptide. The larger the equilibrium constant, the greater affinity the tetrapeptide has for the BIR3.
The aforementioned AVP-dye is used in an assay of test compounds that may, like the Smac tetrapeptide AVPI, bind to the BIR3 domain of XIAP, thereby relieving XIAP-mediated suppression of apoptosis. This is a high-throughput, cell-free assay, that is assembled as follows. A protein comprising the BIR3 domain of an IAP is placed in an assay medium comprising a suitable buffer, as described above. Preferably, this is a recombinant protein comprising the BIR3 domain, but a full IAP protein also may be used. An aliquot of the AVP-dye is added to the reaction mixture, in the presence of the test compound. Controls comprise the BIR3 and the dye in the absence of the test compound and, optionally, BIR3 and the dye in the presence of the naturally occurring tetrapeptide, AVPI. […] Alternatively, a emission spectrum is measured at the selected excitation wavelength. In one type of measurement, the test compound is added and an emission spectrum is measured by scanning from, e.g., 460-480 nm. In another type of measurement, the emission intensity at a particular wavelength, e.g., 470 nm, is measured. […] Thus, the binding affinity of the test compound may be calculated as a function of its ability to displace the dye from the BIR3 domain, according to the following calculation: [formula]
Stock solution of badan, BIR3, and buffer were mixed: 2.5 ml of badan, 1.75 ml BIR3, and 15.25 ml of buffer were mixed in a glass vial which had been chilled to 4° C. Added 390 μL of the stock solution to 50 wells in the pre-chilled 96 well plate (wells A1-E2).
Stock solution of badan and buffer were mixed: 150 μL badan and 1020 μL of buffer were mixed in a small glass vial (also chilled) and added to 3 wells on the plate in 390 μL aliquots (F1-F3).
The 96 well plate was stored over ice in an insulated bucket while the emission spectra of the samples were taken. Fifty μL of the appropriate test solution (or water, for the control experiments) was added with a micropipet, the solution mixed with a Pasteur pipet before adding the sample to the fluorescence cuvette. While one sample was being scanned, the cuvette from the previous scan was washed with EtOH and then next sample was prepared.

| Structure (SMILES) | Kd [1] | other results |
| --- | --- | --- |
| CC(C)[C@@H](C(=O)N1CCC[C@H]1C(=O)N(C)[C@@H](Cc1ccccc1)C(N)=O)N(C)C(=O)[C@H](C)N [A(N-Me)VP(N-Me)F] (H-A[NMeV]P[NMeF]-NH2; N-terminus and C-terminus assumed) | 91 µM | – |
| C[C@H](N)C(=O)N[C@@H](CCCNC(=N)N)C(=O)N1CCC[C@H]1C(=O)N(C)[C@@H](Cc1ccccc1)C(N)=O [ARP(N-Me)F] (H-ARP[NMeF]-NH2; N-terminus and C-terminus assumed) | 0.71 µM | – |
| CC[C@H](C)[C@H](NC(=O)[C@@H]1CCCN1C(=O)[C@H](Cc1c[nH]cn1)NC(=O)[C@H](C)N)C(N)=O [AHPI] (H-AHPI-NH2; N-terminus and C-terminus assumed) | 0.33 µM | Intensity (470 nm) (BIR3 domain of XIAP): 41450; Fraction free (BIR3 domain of XIAP): 0.8543 |
| CCC(N)C(=O)N[C@H](C(=O)N1CCC[C@H]1C(=O)N[C@H](C(N)=O)[C@@H](C)CC)C(C)C (stereo partly drawn) [AbuVPI] (H-[ξAbu]VPI-NH2; N-terminus and C-terminus assumed) | – | Intensity (470 nm) (BIR3 domain of XIAP): 34770; Fraction free (BIR3 domain of XIAP): 0.8867 |
| CSCC[C@H](NC(=O)[C@@H]1CCCN1C(=O)[C@@H](NC(=O)[C@H](C)N)C(C)C)C(N)=O [AVPM] (H-AVPM-NH2; N-terminus and C-terminus assumed) | 2.3 µM | K (BIR3 domain of XIAP): 0.05288 |
| CC(C)[C@H](NC(=O)[C@H](C)N)C(=O)N1CCC[C@H]1C(=O)N[C@@H](CS)C(N)=O [AVPC, Ala-Val-Pro-Cys-NH2] | 1.4 µM | K (BIR3 domain of XIAP): 0.1034 |
| CC[C@H](C)[C@H](NC(=O)[C@@H]1CCCN1C(=O)[C@@H](NC(=O)[C@H](C)N)[C@@H](C)CC)C(N)=O [AIPI] (H-AIPI-NH2; N-terminus and C-terminus assumed) | – | Intensity (470 nm) (BIR3 domain of XIAP): 44902; Fraction free (BIR3 domain of XIAP): 0.8375; Krelative (BIR3 domain of XIAP): 2.6613 |
| CC[C@H](C)[C@@H](C(N)=O)N(C)C(=O)[C@@H]1CCCN1C(=O)[C@H](CCCNC(=N)N)NC(=O)[C@H](C)N [ARP(N-Me)I] | 190 µM | – |
| CC(C)[C@H](NC(=O)[C@H](C)N)C(=O)N1CCC[C@H]1C(=O)N[C@@H](CC(N)=O)C(N)=O [AVPN] (H-AVPN-NH2) | > 100 µM | – |
| CC(C)[C@@H](C(=O)N1CCC[C@H]1C(=O)N[C@@H](Cc1ccccc1)C(N)=O)N(C)C(=O)[C@H](C)N [A(N-Me)VPF] | 83 µM | – |
| CC(C)[C@H](NC(=O)[C@H](C)N)C(=O)N1CCC[C@H]1C(=O)N[C@@H](CO)C(N)=O [AVPS] (H-AVPS-NH2; N-terminus and C-terminus assumed) | 4.4 µM | K (BIR3 domain of XIAP): 0.01304 |
| CC[C@H](C)[C@H](NC(=O)[C@@H]1CCCN1C(=O)[C@H](CO)NC(=O)[C@H](C)N)C(N)=O [ASPI] (H-ASPI-NH2; N-terminus and C-terminus assumed) | 1.4 µM | – |
| CC(C)[C@H](NC(=O)[C@@H]1CCCN1C(=O)[C@@H](NC(=O)[C@H](C)N)C(C)C)C(N)=O [AVPV] (H-AVPV-NH2; N-terminus and C-terminus assumed) | 1.5 µM | K (BIR3 domain of XIAP): 0.1011 |
| CC[C@H](C)[C@H](NC(=O)[C@@H]1CCCN1C(=O)[C@H](CC(=O)O)NC(=O)[C@H](C)N)C(N)=O [ADPI] (H-ADPI-NH2; N-terminus and C-terminus assumed) | 17 µM | – |
| CC[C@H](C)[C@H](NC(=O)[C@@H]1CCCN1C(=O)[C@@H](NC(=O)[C@H](C)N)[C@@H](C)O)C(N)=O [ATPI] (H-ATPI-NH2; N-terminus and C-terminus assumed) | 1.2 µM | – |
| CC(C)[C@H](NC(=O)[C@H](C)N)C(=O)N1CCC[C@H]1C(=O)N[C@@H](CCC(N)=O)C(N)=O [AVPQ] (H-AVPQ-NH2) | > 100 µM | – |
| CC(C)[C@H](NC(=O)[C@H](C)N)C(=O)N1CCC[C@H]1C(=O)NCC(N)=O [AVPG] (H-AVPG-NH2; N-terminus and C-terminus assumed) | 4.7 µM | K (BIR3 domain of XIAP): 0.08948 |
| CC[C@H](C)[C@H](NC(=O)[C@@H]1CCCN1C(=O)[C@H](CC(N)=O)NC(=O)[C@H](C)N)C(N)=O [ANPI] (H-ANPI-NH2; N-terminus and C-terminus assumed) | 1.5 µM | – |
| CC[C@H](C)[C@H](NC(=O)[C@@H]1CCCN1C(=O)[C@H](C(C)C)N(C)C(=O)[C@H](C)N)C(N)=O [A(N-Me)VPI] | 257 µM | – |
| CC(C)[C@H](NC(=O)[C@H](C)N)C(=O)N1CCC[C@H]1C(=O)N(C)[C@@H](Cc1ccccc1)C(N)=O [AVP(N-Me)F] (H-AVP[NMeF]-NH2; N-terminus and C-terminus assumed) | 0.89 µM | – |
| CC(C)[C@H](NC(=O)[C@H](C)N)C(=O)N[C@@H](C)C(=O)N[C@@H](Cc1ccccc1)C(N)=O [AVAF] | 0.56 µM | – |
| CC[C@H](C)[C@H](NC(=O)[C@@H]1CCCN1C(=O)[C@@H](NC(=O)CN)C(C)C)C(N)=O [GVPI] (H-GVPI-NH2; N-terminus and C-terminus assumed) | 9 µM | – |
| CC[C@H](C)[C@@H](C(N)=O)N(C)C(=O)[C@@H]1CCCN1C(=O)[C@@H](NC(=O)[C@H](C)N)C(C)C [AVP(N-Me)I] | 174 µM | – |
| CC[C@H](C)[C@H](NC(=O)[C@@H]1CCCN1C(=O)[C@H](C)NC(=O)[C@H](C)N)C(N)=O [AAPI] (H-AAPI-NH2; N-terminus and C-terminus assumed) | 2.8 µM | – |
| CC[C@H](C)[C@H](NC(=O)[C@@H]1CCCN1C(=O)CNC(=O)[C@H](C)N)C(N)=O [AGPI] (H-AGPI-NH2; N-terminus and C-terminus assumed) | 46 µM | – |
| CC[C@H](C)[C@H](NC(=O)[C@@H]1CCCN1C(=O)[C@H](Cc1c[nH]c2ccccc12)NC(=O)[C@H](C)N)C(N)=O [AWPI] (H-AWPI-NH2; N-terminus and C-terminus assumed) | 0.99 µM | – |
| CC[C@H](C)[C@H](NC(=O)[C@@H]1CCCN1C(=O)[C@@H]1CCCN1C(=O)[C@H](C)N)C(N)=O [APPI] (H-APPI-NH2) | > 100 µM | – |
| CC[C@H](C)[C@H](NC(=O)[C@@H]1CCCN1C(=O)[C@H](CC(C)C)NC(=O)[C@H](C)N)C(N)=O [ALPI] (H-ALPI-NH2; N-terminus and C-terminus assumed) | – | Intensity (470 nm) (BIR3 domain of XIAP): 38650; Fraction free (BIR3 domain of XIAP): 0.8679; Krelative (BIR3 domain of XIAP): 3.5812 |
| CC[C@H](C)[C@H](NC(=O)[C@@H]1CCCN1C(=O)[C@@H](NC(=O)[C@@H](N)CO)C(C)C)C(N)=O [SVPI] | 27 µM | – |
| CC[C@H](C)[C@H](NC(=O)[C@@H]1CCCN1C(=O)[C@H](CCC(=O)O)NC(=O)[C@H](C)N)C(N)=O [AEPI] (H-AEPI-NH2; N-terminus and C-terminus assumed) | 2.7 µM | – |
